Assay results as given in patent US20080153908A1, “Method of Treating Mucin Deficiency with an Active Pharmaceutical and Related Composition” (priority 2006, published 2008).

Assays:
[1] = test system: rat colon cells; details: isolated vascularly perfused rat colon; cited from earlier work
[2] = test system: mucin content of tear film; assay: Stimulation of mucin production: tear film mucin content in patients with mucin deficiency; format: in vivo, human; details: 0.5 wt. % solution in artificial tear solution, four-times a day for four days; control receives artificial tear solution
Protocol: A 0.5 wt. % solution of sodium butyrate in artificial tear solution is administered to one of a […] that suffer from mucin deficiency. The patients receiving butyrate drops belong to the study group. The patients in the control group receive artificial tear solution. Both groups receive treatment four-times a day for four days. Following treatment, tear film samples are collected and tested to quantify mucin content.

[3] = test system: colonic mucin production; details: about 0.1 millimolar sodium butyrate; tissue harvested from colonic cancer patients; cited from earlier work

Structure (SMILES)	stimulation of mucin secretion of rat colon cells [1]	concentration of mucin in tear film samples versus control group [2]	increase in colonic mucin production compared to a control group [3]
CC(=O)O [acetate]	can stimulate the mucin secretion		
CCC(=O)O [propionate]	can stimulate the mucin secretion		
CCCC(=O)[O-].[Na+] [sodium butyrate]		higher concentration of mucin	almost five fold increase
